Experimental data taken from the supplement of paper PMC10307832.

What was measured:
Assay in all cases: relative viability (nuclei count vs DMSO), 5 days (fraction); higher = more cells survive
NVP-TAE684 + Phenformin = compound: COc1cc(N2CCC(N3CCN(C)CC3)CC2)ccc1Nc1ncc(Cl)c(Nc2ccccc2S(=O)(=O)C(C)C)n1 [NVP-TAE684] + N=C(N)NC(=N)NCCc1ccccc1 [Phenformin] (partner 250 µM)
In short: (§1)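 Relative viability divides the nuclei count in treated wells by that in vehicle wells. Lung cancer cell lines were seeded in 1536-well plates, dosed by pin tool the next day, and fixed and stained after 5 days in one step with final 0.05% Triton X-100, 1% formaldehyde and 1 ug/ml Hoechst. Dosing was a single drug or a fixed anchor-drug dose plus five library-drug doses (not always all listed) in √10 steps, and values are medians of duplicate plates imaged at 4×.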

Vandetanib + Dasatinib = compound: COc1cc2/c(=N/c3ccc(Br)cc3F)nc[nH]c2cc1OCC1CCN(C)CC1 [Vandetanib] + Cc1nc(Nc2ncc(C(=O)Nc3c(C)cccc3Cl)s2)cc(N2CCN(CCO)CC2)n1 [Dasatinib] (partner 0.075 µM)
In short: as §1

[1] = compound: C1=CC=C2C(=C1)N=C(S2)C(C#N)C3=NC(=NC=C3)NCCC4=CN=CC=C4 + CS(=O)(=O)CCNCc1ccc(-c2ccc3ncnc(Nc4ccc(OCc5cccc(F)c5)c(Cl)c4)c3c2)o1 [Lapatinib] (partner 2 µM)
In short: as §1

NVP-TAE684 + Olaparib = compound: COc1cc(N2CCC(N3CCN(C)CC3)CC2)ccc1Nc1ncc(Cl)c(Nc2ccccc2S(=O)(=O)C(C)C)n1 [NVP-TAE684] + O=C(c1cc(Cc2n[nH]c(=O)c3ccccc23)ccc1F)N1CCN(C(=O)C2CC2)CC1 [Olaparib] (partner 8 µM)
In short: as §1

UMC-11
relative viability (NVP-TAE684 + Phenformin; first compound 0.2 µM): 0.355 | relative viability (NVP-TAE684 + Phenformin; first compound 0.6325 µM): 0.32 | relative viability (NVP-TAE684 + Phenformin; first compound 2 µM): 0.268 | relative viability (Vandetanib + Dasatinib; first compound 0.02 µM): 0.442 | relative viability (Vandetanib + Dasatinib; first compound 0.06325 µM): 0.422 | relative viability (Vandetanib + Dasatinib; first compound 0.2 µM): 0.43 | relative viability (Vandetanib + Dasatinib; first compound 0.6325 µM): 0.497 | relative viability (Vandetanib + Dasatinib; first compound 2 µM): 0.462 | relative viability ([1]; first compound 0.005 µM): 0.902 | relative viability ([1]; first compound 0.01581 µM): 0.877 | relative viability ([1]; first compound 0.05 µM): 0.843 | relative viability ([1]; first compound 0.1581 µM): 1.59 | relative viability ([1]; first compound 0.5 µM): 0.901 | relative viability (NVP-TAE684 + Olaparib; first compound 0.2 µM): 0.376 | relative viability (NVP-TAE684 + Olaparib; first compound 0.6325 µM): 0.336 | relative viability (NVP-TAE684 + Olaparib; first compound 2 µM): 0.228
